Assay results as given in patent publication US20140135221A1, “Desiccant and Defoliant Composition for Crops” (NIHON NOHYAKU CO., LTD, priority 2011, published 2014).

Test system: seed potatoes (variety: danshaku)
Experiment: Desiccation and defoliation effect on potted potato plants in greenhouse (Test Example 1)
Type: in vivo
Conditions: potato foliage; for desiccation and defoliation effect, 4 DAT: 4 days after treatment; for desiccation and defoliation effect, 7 DAT: 7 days after treatment; for desiccation and defoliation effect, 10 DAT: 10 days after treatment; for desiccation and defoliation effect, 16 DAT: 16 days after treatment
Procedure: In 5100-ml plastic pots filled up with soil (clay loam), seed potatoes (variety: danshaku) were planted and cultivated in a greenhouse. When the foliage was fully developed, specifically, at 30 days after flowering, the test plants were treated with the predetermined effective dosage (expressed as the amounts of active ingredients in g/ha) of the composition of the present invention in a liquid form, and further cultivated in the greenhouse. In the period from 4 days to 16 days after the treatment, the desiccation effect was surveyed and the herbicidal effect was evaluated according to the criterion described below.
Regarding the criterion for evaluating the desiccation and defoliation effect, the extent of desiccation and defoliation was graded from 0% (no effect) to 100% (completely desiccated).

| Structure (SMILES) | desiccation and defoliation effect, 4 DAT (dosage 32 g.a.i./ha) [%] | desiccation and defoliation effect, 7 DAT (dosage 32 g.a.i./ha) [%] | desiccation and defoliation effect, 10 DAT (dosage 32 g.a.i./ha) [%] | desiccation and defoliation effect, 16 DAT (dosage 32 g.a.i./ha) [%] | desiccation and defoliation effect, 4 DAT (dosage 64 g.a.i./ha) [%] | desiccation and defoliation effect, 7 DAT (dosage 64 g.a.i./ha) [%] | desiccation and defoliation effect, 10 DAT (dosage 64 g.a.i./ha) [%] | desiccation and defoliation effect, 16 DAT (dosage 64 g.a.i./ha) [%] | desiccation and defoliation effect, 4 DAT (dosage 10 g.a.i./ha) [%] | desiccation and defoliation effect, 7 DAT (dosage 10 g.a.i./ha) [%] | desiccation and defoliation effect, 10 DAT (dosage 10 g.a.i./ha) [%] | desiccation and defoliation effect, 16 DAT (dosage 10 g.a.i./ha) [%] | desiccation and defoliation effect, 4 DAT (dosage 20 g.a.i./ha) [%] | desiccation and defoliation effect, 7 DAT (dosage 20 g.a.i./ha) [%] | desiccation and defoliation effect, 10 DAT (dosage 20 g.a.i./ha) [%] | desiccation and defoliation effect, 16 DAT (dosage 20 g.a.i./ha) [%] |
| --- | --- | --- | --- | --- | --- | --- | --- | --- | --- | --- | --- | --- | --- | --- | --- | --- |
| Cc1nn(-c2cc(CC(Cl)C(=O)O)c(Cl)cc2F)c(=O)n1C(F)F (stereo not shown) [Carfentrazone] | 18 | 22 | 33 | 40 | 45 | 52 | 58 | 70 |  |  |  |  |  |  |  |  |
| CCOC(=O)COc1cc(-c2nn(C)c(OC(F)F)c2Cl)c(F)cc1Cl [Pyraflufen-ethyl] |  |  |  |  |  |  |  |  | 38 | 42 | 45 | 58 | 48 | 50 | 55 | 68 |
